Laboratory results from patent US12077503B2, “Substituted cyclic amides and their use as herbicides” (FMC CORPORATION, priority 2015, dated 2024).

Legend:
Assay type in all cases: in vivo
[1] = test system: redroot pigweed (Amaranthus retroflexus); assay: Test G Pre-Emergence Protocol; settings: Amaranthus retroflexus, pre-emergence, 312 h, evaluated after 13 days
How it was run: (§1)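 Scores are visual damage ratings from 0 (no damage) to 100 (total plant kill), taken 13 days after treatment. Compound was sprayed one day post-sowing at 15.625, 62.5 or 250 g/ha in 50:50 acetone/water with 0.5% Tween 20.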

[2] = test system: velvetleaf (Abutilon theophrasti); assay: Test G Pre-Emergence Protocol; settings: Abutilon theophrasti, pre-emergence, 312 h, evaluated after 13 days
How it was run: as §1

[3] = test system: ivy-leaved morning glory (Ipomoea hederacea); assay: Test G Pre-Emergence Protocol; settings: Ipomoea, pre-emergence, 312 h, evaluated after 13 days
How it was run: as §1

[4] = test system: giant foxtail (Setaria faberi); assay: Test G Pre-Emergence Protocol; settings: Setaria faberi, pre-emergence, 312 h, evaluated after 13 days
How it was run: as §1

[5] = test system: barnyardgrass (Echinochloa crus-galli); assay: Test G Pre-Emergence Protocol; settings: Echinochloa crus-galli, pre-emergence, 312 h, evaluated after 13 days
How it was run: as §1

corn (Zea mays) [6] = assay: Test G Pre-Emergence Protocol; settings: Zea mays, pre-emergence, 312 h, evaluated after 13 days
How it was run: as §1

[7] = test system: redroot pigweed (Amaranthus retroflexus); assay: Test G Post-Emergence Protocol; settings: Amaranthus retroflexus, post-emergence, 312 h
How it was run: (§2)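 Pot-grown seedlings, 8 days old, raised in a glasshouse at 24/16 °C day/night with 14 h light and 65% humidity, were sprayed post-emergence with test compound in acetone/water (50:50) plus 0.5% Tween 20 at 15.625, 62.5 or 250 g/ha. Damage was scored visually 13 days later on a 0–100 scale (100 = total damage).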

[8] = test system: velvetleaf (Abutilon theophrasti); assay: Test G Post-Emergence Protocol; settings: Abutilon theophrasti, post-emergence, 312 h
How it was run: as §2

[9] = test system: ivy-leaved morning glory (Ipomoea hederacea); assay: Test G Post-Emergence Protocol; settings: Ipomoea, post-emergence, 312 h
How it was run: as §2

[10] = test system: giant foxtail (Setaria faberi); assay: Test G Post-Emergence Protocol; settings: Setaria faberi, post-emergence, 312 h
How it was run: as §2

[11] = test system: barnyardgrass (Echinochloa crus-galli); assay: Test G Post-Emergence Protocol; settings: Echinochloa crus-galli, post-emergence, 312 h
How it was run: as §2

corn (Zea mays) [12] = assay: Test G Post-Emergence Protocol; settings: Zea mays, post-emergence, 312 h
How it was run: as §2

CN1C[C@@H](c2ccc(C(F)(F)F)cc2)[C@H](C(=O)Nc2nn[nH]n2)C1=O (racemic) [Compound 1612]
0%: pest or weed control at 15.625 g/ha ([1]; 15.625 g ai/ha, read-out: Pigweed, Redroot damage rating (100=total damage to plant; 0=no damage to plant)) | pest or weed control at 62.5 g/ha ([1]; 62.5 g ai/ha, 100=total damage to plant, 0=no damage to plant, read-out: plant damage rating, Pigweed, Redroot) | pest or weed control at 250 g/ha ([1]; 250 g ai/ha, read-out: Pigweed, Redroot damage rating (100=total damage to plant; 0=no damage to plant)) | pest or weed control at 15.625 g/ha ([2]; 15.625 g ai/ha, read-out: Velvetleaf damage rating (100=total damage to plant; 0=no damage to plant)) | pest or weed control at 62.5 g/ha ([2]; 62.5 g ai/ha, 100=total damage to plant, 0=no damage to plant, read-out: plant damage rating, Velvetleaf) | pest or weed control at 250 g/ha ([2]; 250 g ai/ha, read-out: Velvetleaf damage rating (100=total damage to plant; 0=no damage to plant)) | pest or weed control at 15.625 g/ha ([3]; 15.625 g ai/ha, read-out: Morning-glory, Ivy-leaved damage rating (100=total damage to plant; 0=no damage to plant)) | pest or weed control at 62.5 g/ha ([3]; 62.5 g ai/ha, 100=total damage to plant, 0=no damage to plant, read-out: plant damage rating, Morningglory, Ivy-leaved) | pest or weed control at 250 g/ha ([3]; 250 g ai/ha, read-out: Morningglory, Ivy-leaved damage rating (100=total damage to plant; 0=no damage to plant)) | pest or weed control at 15.625 g/ha ([4]; 15.625 g ai/ha, read-out: Foxtail, Giant damage rating (100=total damage to plant; 0=no damage to plant)) | pest or weed control at 62.5 g/ha ([4]; 62.5 g ai/ha, 100=total damage to plant, 0=no damage to plant, read-out: plant damage rating, Foxtail, Giant) | pest or weed control at 250 g/ha ([4]; 250 g ai/ha, read-out: Foxtail, Giant damage rating (100=total damage to plant; 0=no damage to plant)) | pest or weed control at 15.625 g/ha ([5]; 15.625 g ai/ha, read-out: Barnyard grass damage rating (100=total damage to plant; 0=no damage to plant)) | pest or weed control at 62.5 g/ha ([5]; 62.5 g ai/ha, 100=total damage to plant, 0=no damage to plant, read-out: plant damage rating, Barnyardgrass) | pest or weed control at 250 g/ha ([5]; 250 g ai/ha, read-out: Barnyardgrass damage rating (100=total damage to plant; 0=no damage to plant)) | plant injury at 15.625 g/ha (corn (Zea mays) [6]; 15.625 g ai/ha, read-out: Corn damage rating (100=total damage to plant; 0=no damage to plant)) | plant injury at 62.5 g/ha (corn (Zea mays) [6]; 62.5 g ai/ha, 100=total damage to plant, 0=no damage to plant, read-out: plant damage rating, Corn) | plant injury at 250 g/ha (corn (Zea mays) [6]; 250 g ai/ha, read-out: Corn damage rating (100=total damage to plant; 0=no damage to plant)) | pest or weed control at 15.625 g/ha ([7]; 15.625 g ai/ha, evaluated after 13 days (100=total damage to plant; 0=no damage to plant), read-out: Pigweed, Redroot damage rating) | pest or weed control at 62.5 g/ha ([7]; 62.5 g ai/ha, evaluated after 13 days, read-out: Pigweed, Redroot damage rating (100=total damage to plant; 0=no damage to plant)) | pest or weed control at 250 g/ha ([7]; 250 g ai/ha, evaluated after 13 days, read-out: damage to plant, Pigweed, Redroot (100=total damage to plant; 0=no damage to plant)) | pest or weed control at 15.625 g/ha ([8]; 15.625 g ai/ha, evaluated after 13 days (100=total damage to plant; 0=no damage to plant), read-out: Velvetleaf damage rating) | pest or weed control at 62.5 g/ha ([8]; 62.5 g ai/ha, evaluated after 13 days, read-out: Velvetleaf damage rating (100=total damage to plant; 0=no damage to plant)) | pest or weed control at 250 g/ha ([8]; 250 g ai/ha, evaluated after 13 days, read-out: damage to plant, Velvetleaf (100=total damage to plant; 0=no damage to plant)) | pest or weed control at 15.625 g/ha ([9]; 15.625 g ai/ha, evaluated after 13 days (100=total damage to plant; 0=no damage to plant), read-out: Morningglory, Ivy-leaved damage rating) | pest or weed control at 62.5 g/ha ([9]; 62.5 g ai/ha, evaluated after 13 days, read-out: Morningglory, Ivy-leaved damage rating (100=total damage to plant; 0=no damage to plant)) | pest or weed control at 250 g/ha ([9]; 250 g ai/ha, evaluated after 13 days, read-out: damage to plant, Morningglory, Ivy-leaved (100=total damage to plant; 0=no damage to plant)) | pest or weed control at 15.625 g/ha ([10]; 15.625 g ai/ha, evaluated after 13 days (100=total damage to plant; 0=no damage to plant), read-out: Foxtail, Giant damage rating) | pest or weed control at 62.5 g/ha ([10]; 62.5 g ai/ha, evaluated after 13 days, read-out: Foxtail, Giant damage rating (100=total damage to plant; 0=no damage to plant)) | pest or weed control at 250 g/ha ([10]; 250 g ai/ha, evaluated after 13 days, read-out: damage to plant, Foxtail, Giant (100=total damage to plant; 0=no damage to plant)) | pest or weed control at 15.625 g/ha ([11]; 15.625 g ai/ha, evaluated after 13 days (100=total damage to plant; 0=no damage to plant), read-out: Barnyardgrass damage rating) | pest or weed control at 62.5 g/ha ([11]; 62.5 g ai/ha, evaluated after 13 days, read-out: Barnyardgrass damage rating (100=total damage to plant; 0=no damage to plant)) | pest or weed control at 250 g/ha ([11]; 250 g ai/ha, evaluated after 13 days, read-out: damage to plant, Barnyardgrass (100=total damage to plant; 0=no damage to plant)) | plant injury at 15.625 g/ha (corn (Zea mays) [12]; 15.625 g ai/ha, evaluated after 13 days (100=total damage to plant; 0=no damage to plant), read-out: Corn damage rating) | plant injury at 62.5 g/ha (corn (Zea mays) [12]; 62.5 g ai/ha, evaluated after 13 days, read-out: Corn damage rating (100=total damage to plant; 0=no damage to plant)) | plant injury at 250 g/ha (corn (Zea mays) [12]; 250 g ai/ha, evaluated after 13 days, read-out: damage to plant, Corn (100=total damage to plant; 0=no damage to plant))
